Experimental data reported in PubChem BioAssay (NCI).
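The compound was tested at five concentrations on cells cultured in 96-well plates, with a 48-hour exposure period. At the GI50, growth is halved. Definition used: TGI = concentration required for complete inhibition of growth.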

Tests used:
Assay in all cases: NCI-60 cell line screen, 48 h
SW-620 colon = tested on: SW-620 colon
EKVX NSCLC = tested on: EKVX NSCLC
COLO 205 colon = tested on: COLO 205 colon
U251 CNS = tested on: U251 CNS
IGROV1 ovarian = tested on: IGROV1 ovarian
SN12C renal = tested on: SN12C renal
HT29 colon = tested on: HT29 colon
PC-3 prostate = tested on: PC-3 prostate
K-562 leukemia = tested on: K-562 leukemia
MALME-3M melanoma = tested on: MALME-3M melanoma

COc1ncnc(NS(=O)(=O)c2ccc(N=C3C(=O)N(CN4CCN(c5c(F)cc6c(=O)c(C(=O)O)cn(C7CC7)c6c5OC)CC4C)c4ccc(Cl)cc43)cc2)c1OC (stereo not given)
GI50 (SW-620 colon): 10.7 µM
TGI (SW-620 colon): > 50 µM
GI50 (EKVX NSCLC): 27.7 µM
TGI (EKVX NSCLC): > 50 µM
GI50 (COLO 205 colon): 19.6 µM
TGI (COLO 205 colon): > 50 µM
GI50 (U251 CNS): 9.61 µM
TGI (U251 CNS): 45.2 µM
GI50 (IGROV1 ovarian): 20 µM
TGI (IGROV1 ovarian): > 50 µM
GI50 (SN12C renal): 16.9 µM
TGI (SN12C renal): > 50 µM
GI50 (HT29 colon): 18.4 µM
TGI (HT29 colon): > 50 µM
GI50 (PC-3 prostate): 9.39 µM
TGI (PC-3 prostate): > 50 µM
GI50 (K-562 leukemia): 20.5 µM
TGI (K-562 leukemia): > 50 µM

ClCc1cccc(Cn2cnc3ncnc(Cl)c32)c1
GI50 (SW-620 colon): 15.2 µM
TGI (SW-620 colon): 32.2 µM
GI50 (EKVX NSCLC): 13.7 µM
TGI (EKVX NSCLC): 29.7 µM
GI50 (COLO 205 colon): 2.61 µM
TGI (COLO 205 colon): > 100 µM
GI50 (U251 CNS): 1.97 µM
TGI (U251 CNS): 3.95 µM
GI50 (IGROV1 ovarian): 3.38 µM
TGI (IGROV1 ovarian): 13.8 µM
GI50 (SN12C renal): 7.02 µM
TGI (SN12C renal): 20.2 µM
GI50 (HT29 colon): 2.89 µM
TGI (HT29 colon): > 100 µM
GI50 (PC-3 prostate): 2.13 µM
TGI (PC-3 prostate): 5.32 µM
GI50 (K-562 leukemia): 16.6 µM
TGI (K-562 leukemia): 48.1 µM

COc1cc(NCc2ccc3oc(=O)c(-c4ccccc4)nc3c2)cc(OC)c1OC
TGI (SW-620 colon): > 10 µM
TGI (EKVX NSCLC): > 10 µM
TGI (COLO 205 colon): > 10 µM
TGI (U251 CNS): > 10 µM
TGI (IGROV1 ovarian): > 10 µM
TGI (SN12C renal): > 10 µM
TGI (HT29 colon): > 10 µM
TGI (PC-3 prostate): > 10 µM
TGI (K-562 leukemia): > 10 µM

O=S1(=O)OCCOS(=O)(=O)C1Br
TGI (SW-620 colon): > 100 µM
TGI (MALME-3M melanoma): > 100 µM
TGI (COLO 205 colon): > 100 µM
TGI (IGROV1 ovarian): > 100 µM
TGI (SN12C renal): > 100 µM
TGI (HT29 colon): > 100 µM
TGI (K-562 leukemia): > 100 µM

COc1cc2c(c(OC)c1OC)-c1ccc(OC)c(=O)cc1C(NC(=O)c1ccc(N=[N+]=[N-])cc1)CC2 (stereo not given)
TGI (SW-620 colon): > 100 µM
TGI (EKVX NSCLC): > 100 µM
TGI (MALME-3M melanoma): > 100 µM
TGI (COLO 205 colon): 0.0627 µM
TGI (U251 CNS): 4 µM
TGI (IGROV1 ovarian): > 100 µM
TGI (SN12C renal): > 41.9 µM
TGI (HT29 colon): 0.208 µM
TGI (K-562 leukemia): > 39.2 µM

C[Si](C)(C)C1(Sc2ccccc2)SCCCS1
TGI (SW-620 colon): > 100 µM
TGI (EKVX NSCLC): > 100 µM
TGI (MALME-3M melanoma): > 100 µM
TGI (COLO 205 colon): > 100 µM
TGI (U251 CNS): > 100 µM
TGI (IGROV1 ovarian): > 100 µM
TGI (SN12C renal): > 100 µM
TGI (HT29 colon): > 100 µM
TGI (K-562 leukemia): > 100 µM

OCCCCCNCc1cc2cc3c(cc2c2cc(OCc4ccccc4)ccc12)OCO3
GI50 (SW-620 colon): 1.39 µM
TGI (SW-620 colon): 2.69 µM
GI50 (EKVX NSCLC): 1.75 µM
TGI (EKVX NSCLC): 3.28 µM
GI50 (MALME-3M melanoma): 1.66 µM
TGI (MALME-3M melanoma): 3.1 µM
GI50 (U251 CNS): 1.65 µM
TGI (U251 CNS): 3.01 µM
GI50 (SN12C renal): 3.4 µM
TGI (SN12C renal): 13.4 µM
GI50 (HT29 colon): 1.5 µM
TGI (HT29 colon): 3 µM
GI50 (K-562 leukemia): 1.68 µM
TGI (K-562 leukemia): 4.11 µM

CN(C)c1nc(=Nc2ccc(N=c3nc(N(C)C)ss3)cc2)ss1
TGI (SW-620 colon): > 65.9 µM
TGI (EKVX NSCLC): > 100 µM
TGI (MALME-3M melanoma): 51.4 µM
TGI (COLO 205 colon): 70.6 µM
TGI (U251 CNS): > 49.8 µM
TGI (IGROV1 ovarian): > 71.7 µM
TGI (SN12C renal): > 92.3 µM
TGI (HT29 colon): 54.5 µM
TGI (K-562 leukemia): 30.5 µM

CC(=O)[C@@]12O[C@@H]1CC1C3CCC4=CC(O)CCC4(C)C3CCC12C (stereo not given in full)
GI50 (SW-620 colon): 39.5 µM
TGI (SW-620 colon): > 100 µM
GI50 (EKVX NSCLC): > 100 µM
TGI (EKVX NSCLC): > 100 µM
GI50 (COLO 205 colon): 57.4 µM
TGI (COLO 205 colon): > 100 µM
GI50 (U251 CNS): 19.1 µM
TGI (U251 CNS): 41.3 µM
GI50 (IGROV1 ovarian): 31.8 µM
TGI (IGROV1 ovarian): > 100 µM
GI50 (SN12C renal): 81 µM
TGI (SN12C renal): > 100 µM
GI50 (HT29 colon): 47.9 µM
TGI (HT29 colon): > 100 µM
GI50 (PC-3 prostate): 40.3 µM
TGI (PC-3 prostate): > 100 µM
GI50 (K-562 leukemia): 55.5 µM
TGI (K-562 leukemia): > 100 µM

Cc1ccc(S(=O)(=O)Nc2ccccc2C(=O)c2ccc(C)c(C)c2)cc1
TGI (SW-620 colon): > 100 µM
TGI (EKVX NSCLC): > 100 µM
TGI (MALME-3M melanoma): > 100 µM
TGI (COLO 205 colon): > 100 µM
TGI (U251 CNS): > 100 µM
TGI (IGROV1 ovarian): > 100 µM
TGI (SN12C renal): > 100 µM
TGI (HT29 colon): > 100 µM
TGI (PC-3 prostate): > 100 µM

COc1cc(OC)cc(-c2cc(=O)c3c(OC)c(OC)c(OC)c(OC)c3o2)c1
TGI (SW-620 colon): > 100 µM
TGI (EKVX NSCLC): > 100 µM
TGI (MALME-3M melanoma): > 100 µM
TGI (COLO 205 colon): 30.6 µM
TGI (U251 CNS): > 100 µM
TGI (IGROV1 ovarian): > 100 µM
TGI (SN12C renal): > 100 µM
TGI (HT29 colon): > 100 µM
TGI (K-562 leukemia): > 100 µM

CC(=O)/C(=C\c1cccc([N+](=O)[O-])c1)C(=O)Nc1ccccc1C
TGI (SW-620 colon): > 100 µM
TGI (EKVX NSCLC): > 100 µM
TGI (MALME-3M melanoma): > 100 µM
TGI (U251 CNS): > 100 µM
TGI (IGROV1 ovarian): > 100 µM
TGI (SN12C renal): > 100 µM
TGI (HT29 colon): > 100 µM
TGI (K-562 leukemia): > 100 µM

Cc1cc(O)c(/C=N/C(=S)NCc2ccccc2)c(=O)o1
TGI (SW-620 colon): > 100 µM
TGI (EKVX NSCLC): > 100 µM
TGI (MALME-3M melanoma): > 100 µM
TGI (COLO 205 colon): > 100 µM
TGI (U251 CNS): > 100 µM
TGI (IGROV1 ovarian): > 100 µM
TGI (SN12C renal): > 100 µM
TGI (HT29 colon): > 100 µM
TGI (PC-3 prostate): > 100 µM

[Cl-].[La+3].[O-]/N=C(\c1ccccc1)c1ccccn1.[O-]/N=C(\c1ccccc1)c1ccccn1.[O-]/N=C(\c1ccccc1)c1ccccn1
GI50 (SW-620 colon): 53.9 µM
TGI (SW-620 colon): > 100 µM
GI50 (EKVX NSCLC): 40.6 µM
TGI (EKVX NSCLC): > 89.5 µM
GI50 (MALME-3M melanoma): 45.8 µM
TGI (MALME-3M melanoma): > 100 µM
GI50 (COLO 205 colon): 46.8 µM
TGI (COLO 205 colon): > 100 µM
GI50 (U251 CNS): 32 µM
TGI (U251 CNS): > 100 µM
GI50 (IGROV1 ovarian): 51.5 µM
TGI (IGROV1 ovarian): > 100 µM
GI50 (SN12C renal): 23.5 µM
TGI (SN12C renal): > 100 µM
GI50 (HT29 colon): 50.4 µM
TGI (HT29 colon): > 100 µM
GI50 (K-562 leukemia): 84.2 µM
TGI (K-562 leukemia): > 100 µM

O=C(/C=C/c1ccncc1)c1cc(Cl)ccc1O
GI50 (SW-620 colon): 12.5 µM
TGI (SW-620 colon): 30.5 µM
GI50 (EKVX NSCLC): 17.2 µM
TGI (EKVX NSCLC): 54.5 µM
GI50 (MALME-3M melanoma): 19.7 µM
TGI (MALME-3M melanoma): 45.5 µM
GI50 (COLO 205 colon): 16.8 µM
TGI (COLO 205 colon): 32.3 µM
GI50 (U251 CNS): 12.7 µM
TGI (U251 CNS): 26.2 µM
GI50 (IGROV1 ovarian): 15 µM
TGI (IGROV1 ovarian): 38.5 µM
GI50 (SN12C renal): 23.4 µM
TGI (SN12C renal): 68.4 µM
GI50 (HT29 colon): 14.1 µM
TGI (HT29 colon): 29.7 µM
GI50 (PC-3 prostate): 14.8 µM
TGI (PC-3 prostate): 33.6 µM

CC1=CC(O)(c2ccc(-c3ccccc3Cl)cc2)OC1=O (stereo not given)
TGI (SW-620 colon): > 100 µM
TGI (EKVX NSCLC): > 100 µM
TGI (MALME-3M melanoma): > 100 µM
TGI (COLO 205 colon): > 100 µM
TGI (U251 CNS): > 100 µM
TGI (IGROV1 ovarian): > 100 µM
TGI (SN12C renal): > 100 µM
TGI (HT29 colon): > 100 µM
TGI (K-562 leukemia): > 100 µM

CC(C)=Cc1cc(C(=O)Nc2ccc(Cl)c(Cl)c2)nc(N)n1
TGI (SW-620 colon): > 100 µM
TGI (EKVX NSCLC): > 100 µM
TGI (MALME-3M melanoma): > 100 µM
TGI (U251 CNS): > 100 µM
TGI (IGROV1 ovarian): > 100 µM
TGI (SN12C renal): > 100 µM
TGI (HT29 colon): > 100 µM
TGI (K-562 leukemia): > 100 µM

Cc1c2c(nn1-c1ccc(S(=O)(=O)/N=C3\SCCC(=O)N3c3ccccc3)cc1)-c1ccccc1CC2
GI50 (EKVX NSCLC): 94 µM
TGI (EKVX NSCLC): > 100 µM
GI50 (COLO 205 colon): > 100 µM
TGI (COLO 205 colon): > 100 µM
GI50 (U251 CNS): > 100 µM
TGI (U251 CNS): > 100 µM
GI50 (IGROV1 ovarian): > 100 µM
TGI (IGROV1 ovarian): > 100 µM
GI50 (SN12C renal): 87.5 µM
TGI (SN12C renal): > 100 µM
GI50 (HT29 colon): > 100 µM
TGI (HT29 colon): > 100 µM
GI50 (PC-3 prostate): > 100 µM
TGI (PC-3 prostate): > 100 µM
GI50 (K-562 leukemia): > 100 µM
TGI (K-562 leukemia): > 100 µM
